In the supplement of paper PMC10307832 one finds relative viability data, which are given here for five cell lines.

Holding throughout (assay): relative viability (nuclei count vs DMSO), 5 days (fraction); higher = more cells survive
Compound in the assay “BAM7 + Pemetrexed”: CCOC1=CC=CC=C1N=NC2=C(NN(C2=O)C3=NC(=CS3)C4=CC=CC=C4)C [BAM7] + Nc1nc2[nH]cc(CCc3ccc(C(=O)N[C@@H](CCC(=O)O)C(=O)O)cc3)c2c(=O)[nH]1 [Pemetrexed] (partner 0.2 µM)
Put shortly:
(§1)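 Relative viability is defined as nuclei in treated wells over nuclei in vehicle wells. Duplicate plates were run and medians reported. Lung cancer cell lines in 1536-well plates were dosed by pin tool one day after seeding, with one drug or with a fixed anchor-drug dose plus five library-drug doses (not always all listed) in √10 steps, and nuclei were counted after 5 days.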

Compound in the assay “BAM7 + Crizotinib”: CCOC1=CC=CC=C1N=NC2=C(NN(C2=O)C3=NC(=CS3)C4=CC=CC=C4)C [BAM7] + C[C@@H](Oc1cc(-c2cnn(C3CCNCC3)c2)cnc1N)c1c(Cl)ccc(F)c1Cl [Crizotinib] (partner 1 µM)
In outline:
as §1

Compound in the assay “BAM7 + Luminespib”: CCOC1=CC=CC=C1N=NC2=C(NN(C2=O)C3=NC(=CS3)C4=CC=CC=C4)C [BAM7] + CCNC(=O)c1noc(-c2cc(C(C)C)c(O)cc2O)c1-c1ccc(CN2CCOCC2)cc1 [Luminespib] (partner 0.01 µM)
Put shortly: as §1

Compound in assay [1]: CCn1c(-c2nonc2N)nc2c(C#CC(C)(C)O)ncc(OC[C@H]3CCCNC3)c21 + COc1cccc2cc(-c3nc([C@H]4CC[C@H](C(=O)O)CC4)n4ncnc(N)c34)[nH]c12 [OSI-027] (partner 0.5 µM)
Put shortly:
as §1

On to RERF-LC-KJ, for which the relative viability is 0.518 with BAM7 + Pemetrexed (first compound 0.5 µM); 0.53 with BAM7 + Pemetrexed (first compound 5 µM); 0.464 with BAM7 + Pemetrexed (first compound 15.81 µM); 0.529 with BAM7 + Pemetrexed (first compound 50 µM); 0.834 in the assay with BAM7 + Crizotinib (first compound 0.5 µM); 0.786 with BAM7 + Crizotinib (first compound 5 µM). Moreover, the relative viability with BAM7 + Crizotinib (first compound 15.81 µM) is 0.78; with BAM7 + Crizotinib (first compound 50 µM), 0.793; with BAM7 + Luminespib (first compound 0.5 µM), 1.19; in the assay with BAM7 + Luminespib (first compound 5 µM), 0.93; in the assay with BAM7 + Luminespib (first compound 15.81 µM) it was 0.726; in the assay with BAM7 + Luminespib (first compound 50 µM) it was 0.759. Moreover, the relative viability worked out at 0.497 in assay [1] (first compound 0.01 µM); 0.564 in assay [1] (first compound 0.03162 µM); 0.526 in assay [1] (first compound 0.1 µM); 0.446 in assay [1] (first compound 0.3162 µM); 0.395 in assay [1] (first compound 1 µM).
With SK-LU-1, the relative viability in the assay with BAM7 + Pemetrexed (first compound 0.5 µM) was 0.906; in the assay with BAM7 + Pemetrexed (first compound 5 µM), 1.07; in the assay with BAM7 + Pemetrexed (first compound 15.81 µM), 0.905; with BAM7 + Pemetrexed (first compound 50 µM), 0.99; with BAM7 + Crizotinib (first compound 0.5 µM) it was 0.785; with BAM7 + Crizotinib (first compound 5 µM) it was 1.05. Further, the relative viability in the assay with BAM7 + Crizotinib (first compound 15.81 µM) amounted to 0.903; with BAM7 + Crizotinib (first compound 50 µM), 0.866; with BAM7 + Luminespib (first compound 0.5 µM) it was 0.217; with BAM7 + Luminespib (first compound 5 µM), 0.18; with BAM7 + Luminespib (first compound 15.81 µM) it was 0.2; in the assay with BAM7 + Luminespib (first compound 50 µM) it was 0.186. Also, the relative viability was 0.387 in assay [1] (first compound 0.01 µM); 0.365 in assay [1] (first compound 0.03162 µM); 0.318 in assay [1] (first compound 0.1 µM); 0.29 in assay [1] (first compound 0.3162 µM); 0.343 in assay [1] (first compound 1 µM).
With SK-MES-1, the relative viability with BAM7 + Pemetrexed (first compound 0.5 µM) was found to be 0.919; with BAM7 + Pemetrexed (first compound 5 µM) it was 0.906; in the assay with BAM7 + Pemetrexed (first compound 15.81 µM) it was 0.814; with BAM7 + Pemetrexed (first compound 50 µM) it was 0.866; with BAM7 + Crizotinib (first compound 0.5 µM) it was 1.05; with BAM7 + Crizotinib (first compound 5 µM), 1.01. The relative viability turned out to be 0.961 with BAM7 + Crizotinib (first compound 15.81 µM); 1.04 with BAM7 + Crizotinib (first compound 50 µM); 0.877 with BAM7 + Luminespib (first compound 0.5 µM); 0.805 with BAM7 + Luminespib (first compound 5 µM); 0.621 with BAM7 + Luminespib (first compound 15.81 µM); 0.798 with BAM7 + Luminespib (first compound 50 µM). Further, the relative viability amounted to 0.642 in assay [1] (first compound 0.01 µM); 0.598 in assay [1] (first compound 0.03162 µM); 0.552 in assay [1] (first compound 0.1 µM); 0.531 in assay [1] (first compound 0.3162 µM); 0.609 in assay [1] (first compound 1 µM).
On to SW 1573, for which the relative viability stood at 0.843 with BAM7 + Pemetrexed (first compound 0.5 µM); 0.822 in the assay with BAM7 + Pemetrexed (first compound 5 µM); 0.801 with BAM7 + Pemetrexed (first compound 15.81 µM); 0.823 with BAM7 + Pemetrexed (first compound 50 µM); 0.974 with BAM7 + Crizotinib (first compound 0.5 µM); 0.962 with BAM7 + Crizotinib (first compound 5 µM). Further, the relative viability with BAM7 + Crizotinib (first compound 15.81 µM) was 0.778; with BAM7 + Crizotinib (first compound 50 µM), 0.8; with BAM7 + Luminespib (first compound 0.5 µM), 0.356; in the assay with BAM7 + Luminespib (first compound 5 µM), 0.168; with BAM7 + Luminespib (first compound 15.81 µM), 0.417; in the assay with BAM7 + Luminespib (first compound 50 µM), 0.229. The relative viability in assay [1] (first compound 0.01 µM) was 0.59; in assay [1] (first compound 0.03162 µM) it was 0.559; in assay [1] (first compound 0.1 µM) it was 0.514; in assay [1] (first compound 0.3162 µM), 0.34; in assay [1] (first compound 1 µM), 0.27.
Take UMC-11: the relative viability with BAM7 + Pemetrexed (first compound 0.5 µM) was 0.85; with BAM7 + Pemetrexed (first compound 5 µM), 0.912; with BAM7 + Pemetrexed (first compound 15.81 µM) it was 0.847; in the assay with BAM7 + Pemetrexed (first compound 50 µM), 0.839; with BAM7 + Crizotinib (first compound 0.5 µM), 0.661; with BAM7 + Crizotinib (first compound 5 µM), 0.786. The relative viability with BAM7 + Crizotinib (first compound 15.81 µM) is 0.624; in the assay with BAM7 + Crizotinib (first compound 50 µM), 0.636; with BAM7 + Luminespib (first compound 0.5 µM), 1.07; in the assay with BAM7 + Luminespib (first compound 5 µM) it was 1.11; with BAM7 + Luminespib (first compound 15.81 µM) it was 1.1; in the assay with BAM7 + Luminespib (first compound 50 µM) it was 0.991. Further, the relative viability in assay [1] (first compound 0.01 µM) was 0.512; in assay [1] (first compound 0.03162 µM), 0.489; in assay [1] (first compound 0.1 µM) it was 0.515; in assay [1] (first compound 0.3162 µM), 0.423; in assay [1] (first compound 1 µM), 0.496.
